In patent publication US20080200531A1, “CDKI pathway inhibitors as inhibitors of tumor cell growth” (priority 2006, published 2008):
Read-outs that look alike come from different tables or passages of the source.

Assays:
[1] = tested on: p21-responsive genes (IPTG-induced p21); assay: Affymetrix U133 2.0 Plus microarray analysis of p21-responsive genes in HT1080 p21-9; type: cell-based, human; conditions: for fold induction at 20 µM: Homo sapiens, HT-1080, 72 h
Description: HT1080 p21-9 cell line, which carries IPTG-inducible CDKI p21, was either untreated, or treated for 72 hrs with 100 μM IPTG (which induces p21), or with CDKI pathway inhibitors SNX9-1 (20 μM, SNX9 family) or SNX14 (80 μM, unrelated to SNX9) alone or in combination with IPTG. RNA was extracted after each treatment and used for hybridization with Affymetrix U133 2.0 Plus microarrays, containing 56,000 probe sets corresponding to essentially all the human genes. The microarray data were analyzed using Gene Spring software (Agilent). […] The first group (p21-induced genes, top panels) represents 1124 probe sets corresponding to genes that were induced at least 2-fold upon treatment with p21-inducing IPTG. The second group (p21-inhibited genes, bottom panels) represents 435 probe sets corresponding to genes that were inhibited at least 4-fold upon IPTG treatment. […] The left panels show the response of the two groups of genes to IPTG (p21 induction) in the absence of SNX9-class compounds, with the first group induced and the second group inhibited by IPTG. The middle panels show the response of the same genes to IPTG in the presence of SNX9-1 or SNX14 (added with or without IPTG). Both the induction and the inhibition of gene expression by IPTG appear much reduced in the presence of SNX9-1 or SNX14, as expected from their activity as CDKI pathway inhibitors.

HT1080 fibrosarcoma = assay: 3-day growth inhibition assay (Hoechst 33342), HT1080; type: cell-based; conditions: Homo sapiens, HT-1080, 72 h, 3 days, read-out: growth inhibition (decrease in cell number relative to untreated cells)
Description: The assays were carried out in 96-well plates, in triplicates; the plated cell numbers for each cell line were determined in preliminary experiments to assure exponential growth over the 3-day period of the assay. The cell numbers were measured by staining DNA of attached cells with Hoechst 33342, and the results for each dose were expressed as the decrease in cell number relative to untreated cells. For some of the tumor/normal cell line combinations, the assays were repeated using CellTiter-Glo viability assay (Promega), with the same results.

HT1080 p21-9 cells = assay: FACS analysis of DNA content and GF7 mitotic staining; type: cell-based, human
Source text: The combination of p21 and SNX9-class compounds leads to both G1 and G2/M arrest, at the levels expected for the combined effects of p21 and SNX9 (FIG. 6).

[2] = SNX9-1 20 μM, SNX14 80 μM, 72 hrs

Structure (SMILES) | fold induction at 20 µM ([1]; read-out: Fold induction by IPTG, CD44, probe 212063_at, SNX14 80 μM, SNX9-1 20 μM, control 1.21) | fold induction at 20 µM ([1]; read-out: Fold induction by IPTG, CLTB, probe 211043_s_at, SNX14 80 μM, SNX9-1 20 μM, control 1.32) | fold induction at 20 µM ([1]; read-out: Fold induction by IPTG, FLJ13111, probe 218148_at, SNX14 80 μM, SNX9-1 20 μM, control 1.27) | fold induction at 20 µM ([1]; read-out: Fold induction by IPTG, KRT8, probe 209008_x_at, SNX14 80 μM, SNX9-1 20 μM, control 1.97) | fold induction at 20 µM ([1]; read-out: Fold induction by IPTG, LGALS3, probe 208949_s_at, SNX14 80 μM, SNX9-1 20 μM, control 3.74) | fold induction at 20 µM ([1]; read-out: Fold induction by IPTG, NK4, probe 203828_s_at, SNX14 80 μM, SNX9-1 20 μM, control 7.22) | fold induction at 20 µM ([1]; read-out: Fold induction by IPTG, SLC22A18, probe 204981_at, SNX14 80 μM, SNX9-1 20 μM, control 2.46) | fold induction at 20 µM ([1]; read-out: Fold induction by IPTG, SPTBN1, probe 212071_s_at, SNX14 80 μM, SNX9-1 20 μM, control 1.24) | fold induction at 20 µM ([1]; read-out: Fold induction by IPTG, SPTBN1, probe 226765_at, SNX14 80 μM, SNX9-1 20 μM, control 1.21) | induction and inhibition of gene expression by IPTG in the presence of compound (1124 p21-induced, 435 p21-inhibited probe sets) [1, 2] | induction by p21 of genes that are markers of cancer intractability [1, 2] | response of p21-induced and p21-inhibited genes to compound in the absence of IPTG ([1]; SNX9-1 20 μM, SNX14 80 μM, 72 hrs, weaker than IPTG) | inhibition at 5 µM (HT1080 fibrosarcoma) [%] | mitotic fraction (GF7 antibody staining) (HT1080 p21-9 cells; SNX9-treated cells) | G2/M fraction (FACS analysis of DNA content) (HT1080 p21-9 cells; SNX9 alone)
NCCc1c[nH]c2c(Cl)cc(Cl)cc12 [SNX9-1] | 1.03 | 0.95 | 0.98 | 0.81 | 1.33 | 1.6 | 1.34 | 1.24 | 1.09 | much reduced | inhibited their induction | most of p21-induced genes are induced by SNX9-1 and SNX14 and most of p21-inhibited genes are inhibited | – | – | –
Cc1[nH]c2c(Cl)cccc2c1CCN [SNX9] | – | – | – | – | – | – | – | – | – | – | – | – | ~100 | increase in the mitotic fraction | pronounced increase in the G2/M fraction
